From the NIST ThermoML archive (doi:10.1021/je050484k)
Several values for one entry are separate records, joined by “and”; a condition that tells them apart may be missing. Equal entries are not always repeated.

What was measured:
[1] = for surface tension liquid-gas: Pendant drop shape; for mass density: 101 kPa, Liquid
[2] = xn = mol fraction of the nth substance listed; details: for surface tension liquid-gas: Pendant drop shape; for mass density: 101 kPa, Liquid

Cc1ccc(C)c(C)c1 [1,2,4-trimethylbenzene]
[1]
Details	mass density [kg/m3]	surface tension liquid-gas [mN/m]
298.15 K	871.65	29.29
313.15 K	859.54	27.67

Cc1ccc(C)c(C)c1 [1,2,4-trimethylbenzene] + COCCO
[2]
Details	mass density [kg/m3]	surface tension liquid-gas [mN/m]
298.15 K, x2 = 0	871.65	29.29
298.15 K, x2 = 0.0507	873.14	–
298.15 K, x2 = 0.0976	875.08	29.36
298.15 K, x2 = 0.154	877.75	–
298.15 K, x2 = 0.2031	880.31	29.36
298.15 K, x2 = 0.2556	883.31	–
298.15 K, x2 = 0.3021	886.13	29.35
298.15 K, x2 = 0.3482	889.1	–
298.15 K, x2 = 0.3999	892.67	29.44
298.15 K, x2 = 0.453	896.6	–
298.15 K, x2 = 0.5015	900.39	29.57
298.15 K, x2 = 0.5513	904.61	–
298.15 K, x2 = 0.6035	909.35	29.78
298.15 K, x2 = 0.6526	914.1	–
298.15 K, x2 = 0.7033	919.38	30.03
298.15 K, x2 = 0.7534	924.98	–
298.15 K, x2 = 0.7974	930.26	30.34
298.15 K, x2 = 0.8455	936.54	–
298.15 K, x2 = 0.9014	944.31	30.61
298.15 K, x2 = 0.9507	951.9	–
313.15 K, x2 = 0	859.54	27.67
313.15 K, x2 = 0.0494	860.68	–
313.15 K, x2 = 0.1019	862.75	27.78
313.15 K, x2 = 0.15	864.92	–
313.15 K, x2 = 0.2002	867.4	27.72
313.15 K, x2 = 0.2486	869.95	–
313.15 K, x2 = 0.3004	873	27.72
313.15 K, x2 = 0.3507	876.1	–
313.15 K, x2 = 0.4007	879.45	27.79
313.15 K, x2 = 0.4502	883.02	–
313.15 K, x2 = 0.4991	886.8	27.84
313.15 K, x2 = 0.5513	891.2	–
313.15 K, x2 = 0.6006	895.56	28.03
313.15 K, x2 = 0.653	900.55	–
313.15 K, x2 = 0.7002	905.44	28.29
313.15 K, x2 = 0.7504	910.91	–
313.15 K, x2 = 0.7999	916.79	28.59
313.15 K, x2 = 0.8496	923.25	–
313.15 K, x2 = 0.9007	930.3	28.96
313.15 K, x2 = 0.9504	937.74	–

Cc1ccc(C)c(C)c1 [1,2,4-trimethylbenzene] + COCCOC
[2]
Details	mass density [kg/m3]	surface tension liquid-gas [mN/m]
298.15 K, x2 = 0	871.65	29.29
298.15 K, x2 = 0.0488	871.13	–
298.15 K, x2 = 0.103	870.57	28.71
298.15 K, x2 = 0.1497	870.09	–
298.15 K, x2 = 0.205	869.53	28.11
298.15 K, x2 = 0.2496	869.07	–
298.15 K, x2 = 0.3006	868.54	27.54
298.15 K, x2 = 0.3515	868.02	–
298.15 K, x2 = 0.398	867.54	26.97
298.15 K, x2 = 0.4492	867.02	–
298.15 K, x2 = 0.5005	866.49	26.43
298.15 K, x2 = 0.5491	865.99	–
298.15 K, x2 = 0.601	865.46	25.9
298.15 K, x2 = 0.649	864.97	–
298.15 K, x2 = 0.6979	864.48	25.42
298.15 K, x2 = 0.7506	863.94	–
298.15 K, x2 = 0.7977	863.46	24.92
298.15 K, x2 = 0.8501	862.93	–
298.15 K, x2 = 0.9018	862.41	24.41
298.15 K, x2 = 0.9463	861.95	–
313.15 K, x2 = 0	859.54	27.67
313.15 K, x2 = 0.0482	858.88	–
313.15 K, x2 = 0.1004	858.17	–
313.15 K, x2 = 0.1019	–	27.02
313.15 K, x2 = 0.1494	857.51	–
313.15 K, x2 = 0.1999	856.82	–
313.15 K, x2 = 0.2002	–	26.43
313.15 K, x2 = 0.2495	856.16	–
313.15 K, x2 = 0.2999	855.48	–
313.15 K, x2 = 0.3004	–	25.85
313.15 K, x2 = 0.353	854.74	–
313.15 K, x2 = 0.4007	–	25.26
313.15 K, x2 = 0.4015	854.06	–
313.15 K, x2 = 0.4557	853.31	–
313.15 K, x2 = 0.4991	–	24.73
313.15 K, x2 = 0.4996	852.68	–
313.15 K, x2 = 0.5499	851.99	–
313.15 K, x2 = 0.5989	851.29	–
313.15 K, x2 = 0.6006	–	24.23
313.15 K, x2 = 0.6513	850.53	–
313.15 K, x2 = 0.7002	–	23.77
313.15 K, x2 = 0.7005	849.81	–
313.15 K, x2 = 0.7508	849.12	–
313.15 K, x2 = 0.7999	–	23.32
313.15 K, x2 = 0.8	848.38	–
313.15 K, x2 = 0.8503	847.65	–
313.15 K, x2 = 0.9007	–	22.94
313.15 K, x2 = 0.9008	846.87	–
313.15 K, x2 = 0.9493	846.16	–

COCCOC [1,2-dimethoxyethane]
[1]
Details	mass density	surface tension liquid-gas [mN/m]
298.15 K	861.38 kg/m3	23.93
313.15 K	845.31 kg/m3 and 845.28 kg/m3	22.51

COCCOC [1,2-dimethoxyethane] + Cc1cc(C)cc(C)c1
[2]
Details	mass density [kg/m3]	surface tension liquid-gas [mN/m]
298.15 K, x1 = 0.0487	860.76	–
298.15 K, x1 = 0.0997	860.5	27.6
298.15 K, x1 = 0.1518	860.24	–
298.15 K, x1 = 0.201	860.03	27.07
298.15 K, x1 = 0.2499	859.85	–
298.15 K, x1 = 0.2978	859.68	26.59
298.15 K, x1 = 0.3484	859.56	–
298.15 K, x1 = 0.3973	859.41	26.14
298.15 K, x1 = 0.451	859.35	–
298.15 K, x1 = 0.4991	859.29	25.71
298.15 K, x1 = 0.5498	859.31	–
298.15 K, x1 = 0.5977	859.3	25.35
298.15 K, x1 = 0.6494	859.42	–
298.15 K, x1 = 0.7011	859.52	25
298.15 K, x1 = 0.7499	859.69	–
298.15 K, x1 = 0.7999	859.91	24.67
298.15 K, x1 = 0.8474	860.25	–
298.15 K, x1 = 0.9008	860.54	24.3
298.15 K, x1 = 0.9484	860.95	–
298.15 K, x1 = 1	861.38	23.93
313.15 K, x1 = 0.0504	848.29	–
313.15 K, x1 = 0.0988	847.89	26.2
313.15 K, x1 = 0.1505	847.48	–
313.15 K, x1 = 0.1996	847.11	25.69
313.15 K, x1 = 0.2474	846.78	–
313.15 K, x1 = 0.3	846.42	25.17
313.15 K, x1 = 0.3495	846.14	–
313.15 K, x1 = 0.4	845.85	24.69
313.15 K, x1 = 0.4498	845.61	–
313.15 K, x1 = 0.5002	845.34	24.24
313.15 K, x1 = 0.5502	845.18	–
313.15 K, x1 = 0.5998	845	23.84
313.15 K, x1 = 0.6509	844.85	–
313.15 K, x1 = 0.6989	844.79	23.49
313.15 K, x1 = 0.7494	844.74	–
313.15 K, x1 = 0.8	844.75	23.17
313.15 K, x1 = 0.8505	844.8	–
313.15 K, x1 = 0.8991	844.92	22.84
313.15 K, x1 = 0.9502	845.1	–
313.15 K, x1 = 1	845.28	22.51

COCCOC [1,2-dimethoxyethane] + Cc1ccc(C)c(C)c1
[2], x1 = 1
Details	mass density [kg/m3]	surface tension liquid-gas [mN/m]
298.15 K	861.38	23.93
313.15 K	845.31	22.51

Cc1cc(C)cc(C)c1 [1,3,5-trimethylbenzene]
[1]
Details	mass density [kg/m3]	surface tension liquid-gas [mN/m]
298.15 K	861.05	28.09
313.15 K	848.74	26.82

Cc1cc(C)cc(C)c1 [1,3,5-trimethylbenzene] + COCCO
[2]
Details	mass density [kg/m3]	surface tension liquid-gas [mN/m]
298.15 K, x2 = 0	861.05	28.09
298.15 K, x2 = 0.0486	862.67	–
298.15 K, x2 = 0.0993	865.02	28.19
298.15 K, x2 = 0.1546	867.91	–
298.15 K, x2 = 0.2021	870.67	28.23
298.15 K, x2 = 0.2469	873.41	–
298.15 K, x2 = 0.3015	877.06	28.34
298.15 K, x2 = 0.3469	880.3	–
298.15 K, x2 = 0.4011	884.41	28.51
298.15 K, x2 = 0.45	888.41	–
298.15 K, x2 = 0.501	892.85	28.73
298.15 K, x2 = 0.5508	897.5	–
298.15 K, x2 = 0.6004	902.45	29.03
298.15 K, x2 = 0.6509	907.91	–
298.15 K, x2 = 0.7003	913.59	29.35
298.15 K, x2 = 0.7483	919.54	–
298.15 K, x2 = 0.8008	926.64	29.72
298.15 K, x2 = 0.8501	933.84	–
298.15 K, x2 = 0.9001	941.83	30.2
298.15 K, x2 = 0.9502	950.56	–
313.15 K, x2 = 0	848.74	26.82
313.15 K, x2 = 0.0518	850.28	–
313.15 K, x2 = 0.0979	852.21	26.93
313.15 K, x2 = 0.1489	854.71	–
313.15 K, x2 = 0.198	857.38	26.91
313.15 K, x2 = 0.2497	860.47	–
313.15 K, x2 = 0.3009	863.78	26.97
313.15 K, x2 = 0.349	867.13	–
313.15 K, x2 = 0.3988	870.82	27.02
313.15 K, x2 = 0.4527	875.14	–
313.15 K, x2 = 0.5005	879.25	27.13
313.15 K, x2 = 0.5497	883.79	–
313.15 K, x2 = 0.6003	888.79	27.36
313.15 K, x2 = 0.6491	893.96	–
313.15 K, x2 = 0.6995	899.77	27.67
313.15 K, x2 = 0.7498	906.04	–
313.15 K, x2 = 0.8001	912.79	28.01
313.15 K, x2 = 0.8374	918.17	–
313.15 K, x2 = 0.9006	928.15	28.55
313.15 K, x2 = 0.9491	936.64	–

Cc1cc(C)cc(C)c1 [1,3,5-trimethylbenzene] + COCCOC
[2], x2 = 0
Details	mass density [kg/m3]	surface tension liquid-gas [mN/m]
298.15 K	861.05	28.09
313.15 K	848.74	26.82

COCCO [2-methoxyethan-1-ol]
[1]
Details	mass density [kg/m3]	surface tension liquid-gas [mN/m]
298.15 K	960.02	30.88
313.15 K	946.17	29.42

COCCO [2-methoxyethan-1-ol] + Cc1cc(C)cc(C)c1
[2], x1 = 1
Details	mass density [kg/m3]	surface tension liquid-gas [mN/m]
298.15 K	960.02	30.88
313.15 K	946.17	29.42

COCCO [2-methoxyethan-1-ol] + Cc1ccc(C)c(C)c1
[2], x1 = 1
Details	mass density [kg/m3]	surface tension liquid-gas [mN/m]
298.15 K	960.02	30.88
313.15 K	946.17	29.42
